In patent US10577362B2, “Substituted 2, 4-diamino-quinoline derivatives for use in the treatment of proliferative diseases” (GENOSCIENCE PHARMA, priority 2016, dated 2020):
Where a name gives a salt, the structure may show the parent alone.

Columns and labels:
Assay type in all cases: cell-based, human
[1] = system: MOLM-14 (acute myeloid leukemia) cell line; assay: CellTiter-Glo luminescent cell viability assay, MOLM-14; conditions: Homo sapiens; for EC50: MOLM-14 cell line, 72 h incubation, CellTiter-Glo, read-out: EC50, growth inhibition of MOLM-14; for viability at 4 µM: MOLM-14, compound at 4 μM; for viability at 4 µM / viability at 10 µM: 72 h; for viability at 10 µM: MOLM-14, compound at 10 μM
Procedure: (§1) All cell lines were maintained in medium containing 1% penicillin-streptomycin (Dutscher, P06-07100) and 10% Fetal Bovine Serum (Hyclone Dutscher, RZK35922) cultured at 37° C. with 5% CO2. HepG2 (hepatocellular carcinoma), cell line was cultured in Dulbecco's modified Eagle's medium low glucose (Gibco, 21885025), Huh7 (hepatocellular carcinoma), HCT-116 (colorectal carcinoma), PANC-1 (prancreatic carcinoma) and A375 (malignant melanoma) cell lines were cultured in Dulbecco's modified Eagle's medium (Dutscher, L0103). MOLM-14 (acute myeloid leukemia) cell line was maintained in MEM alpha medium (Gibco, 22561-021). 786-0 (renal adenocarcinoma) cell lines were maintained in RPMI 1640 medium (Dutscher, L0498).
(§2) Cell viability was measured using the CellTiter-Glo® luminescent cell viability assay as described by the manufacturer (Promega, Ref G7571) using an Infinite F200Pro luminometer (Tecan). Briefly, for adherent cells, cells were plated onto 96-well plates (white with clear bottom) in 90 μL of media per well and were allowed to grow overnight before the assay. For cells growing in suspension, cells were plated onto 96-well plates 1 h before the assay.
(§3) Compounds were resuspended in H2O or DMSO and added at different concentrations to each well, and cell cultures were incubated for 72 h. Each diluent (H2O or DMSO) were used as a control, and all compounds were tested in a constant percentage of H2O or DMSO. On the day of the reading, plates are equilibrated 30 min at room temperature before the addition of 100 μL of CellTiter-Glo® and luminescence was measured using an Infinite F200Pro (Tecan). % cell viability were expressed as a percentage of the signal obtained for cell cultures treated with diluent. EC50 values were determined as the dose of compound required to reduce luminescent values to 50% of the signal obtained for cell cultures treated with diluent. The experimental data were analyzed using a computer program, Graphpad Prism v5 (GraphPad Software, Inc. La Jolla, Calif.). All points were at least done in duplicate.

[2] = system: 786-O (renal adenocarcinoma) cell line; assay: CellTiter-Glo luminescent cell viability assay, 786-O; conditions: Homo sapiens, 786-0; for EC50: 786-O cell line, 72 h incubation, CellTiter-Glo, read-out: EC50, growth inhibition of 786-O; for viability at 4 µM / viability at 10 µM: 786-O, 72 h; for viability at 4 µM: compound at 4 μM; for viability at 10 µM: compound at 10 μM
Procedure: as §1, §2, §3

[3] = system: HCT-116 (colorectal carcinoma) cell line; assay: CellTiter-Glo luminescent cell viability assay, HCT-116; conditions: Homo sapiens; for EC50: HCT-116 cell line, 72 h incubation, CellTiter-Glo, read-out: EC50, growth inhibition of HCT-116; for viability at 4 µM: HCT-116, compound at 4 μM; for viability at 4 µM / viability at 10 µM: 72 h; for viability at 10 µM: HCT-116, compound at 10 μM
Procedure: as §1, §2, §3

[4] = system: A375 (malignant melanoma) cell line; assay: CellTiter-Glo luminescent cell viability assay, A375; conditions: Homo sapiens, A-375; for EC50: A375 cell line, 72 h incubation, CellTiter-Glo, read-out: EC50, growth inhibition of A375; for viability at 4 µM: A375, compound at 4 μM; for viability at 4 µM / viability at 10 µM: 72 h; for viability at 10 µM: A375, compound at 10 μM
Procedure: as §1, §2, §3

[5] = system: Huh7 (hepatocellular carcinoma) cell line; assay: CellTiter-Glo luminescent cell viability assay, Huh7; conditions: Homo sapiens, Huh-7; for EC50: Huh7 cell line, 72 h incubation, CellTiter-Glo, read-out: EC50, growth inhibition of Huh7; for viability at 4 µM: Huh7, compound at 4 μM; for viability at 4 µM / viability at 10 µM: 72 h; for viability at 10 µM: Huh7, compound at 10 μM
Procedure: as §1, §2, §3

[6] = system: HepG2 (hepatocellular carcinoma) cell line; assay: CellTiter-Glo luminescent cell viability assay, HepG2; conditions: Homo sapiens; for EC50: HepG2 cell line, 72 h incubation, CellTiter-Glo, read-out: EC50, growth inhibition of HepG2; for viability at 4 µM / viability at 10 µM: HepG2, HepG, 72 h; for viability at 4 µM: compound at 4 μM; for viability at 10 µM: compound at 10 μM
Procedure: as §1, §2, §3

EC50 [1] [µM] | EC50 [2] [µM] | EC50 [3] [µM] | EC50 [4] [µM] | EC50 [5] [µM] | EC50 [6] [µM] | SMILES | viability at 4 µM [1] [%] | viability at 10 µM [1] [%] | viability at 4 µM [2] [%] | viability at 10 µM [2] [%] | viability at 4 µM [3] [%] | viability at 10 µM [3] [%] | viability at 4 µM [4] [%] | viability at 10 µM [4] [%] | viability at 4 µM [5] [%] | viability at 10 µM [5] [%] | viability at 4 µM [6] [%] | viability at 10 µM [6] [%]
0.5 to 5 | 5 to 10 | 5 to 10 | 5 to 10 | 0.5 to 5 | 0.5 to 5 | Clc1ccc(CNc2cc(N3CCC(Oc4cnccn4)CC3)c3ccccc3n2)cc1 [Compound 2958, 2-(4-chlorobenzylamino)-4-[4-(pyrazin-2-yloxy)piperidin-1-yl]quinoline hydrochloride] |  |  |  |  |  |  |  |  |  |  |  | 
0.5 to 5 | 0.5 to 5 | 0.5 to 5 | 0.5 to 5 | 5 to 10 | 0.5 to 5 | CC(C)(C)NC1CCN(c2c(F)c(NCc3ccc(Cl)cc3)nc3ccccc23)CC1 [Compound 348, 2-(4-chlorobenzylamino)-3-fluoro-4-[4-(tert-butylamino)piperidin-1-yl]quinoline Hydrochloride Salt] |  |  |  |  |  |  |  |  |  |  |  | 
 |  |  |  |  |  | Cc1ccc(Nc2nc3ccccc3c(N3CCC(NC(C)(C)C)CC3)c2C#N)cc1 [Compound 3248CN, 2-(4-methylphenylamino)-3-cyano-4-[4-(tert-butylamino)piperidin-1-yl]quinoline] | 88.5 | 53.4 | 100 | 27.7 | 88.9 | 0.5 | 79.2 | 0.4 | 89.3 | 56.3 | 109 | 73.1
 |  |  |  |  |  | N#Cc1c(NCc2ccc(Cl)cc2)nc2ccccc2c1N1CCC(Oc2cccc(F)c2)C1 (stereo not drawn) [Compound 3340CN, 2-(4-chlorobenzylamino)-3-cyano-4-[3-(3-fluorophenoxy)pyrrolidin-1-yl]quinoline] | 96 | 97.7 | 65.7 | 36.4 | 101 | 86.3 | 95.9 | 90.8 | 85.6 | 39.9 | 98.9 | 90.8
 |  |  |  |  |  | N#Cc1c(NCc2ccc(Cl)cc2)nc2ccccc2c1N1CCC(Oc2ccc(F)cc2)CC1 [Compound 2942CN, 2-(4-chlorobenzylamino)-3-cyano-4-[4-(4-fluorophenoxy)piperidin-1-yl]quinoline] | 98.2 | 88.1 | 87.7 | 81.3 | 91 | 75.1 | 101 | 94.9 | 94.3 | 87.9 | 99.1 | 75.3
 |  |  |  |  |  | N#Cc1c(NCc2ccc(Cl)cc2)nc2ccccc2c1N1CCC(Oc2cccc(F)c2)CC1 [Compound 3228CN, 2-(4-chlorobenzylamino)-3-cyano-4-[4-(3-fluorophenoxy)piperidin-1-yl]quinoline] | 107 | 100 | 97.9 | 92.9 | 101 | 85.2 | 98 | 91.7 | 117 | 108 | 96.7 | 86.7
 |  |  |  |  |  | N#Cc1c(NCc2ccc(Cl)cc2)nc2ccccc2c1N1CCCC(Oc2ccccc2)C1 (stereo not drawn) [Compound 3206CN, 2-(4-chlorobenzylamino)-3-cyano-4-(3-phenoxypiperidin-1-yl)quinoline] | 96 | 107 | 79.9 | 75.1 | 97.9 | 91.2 | 111 | 104 | 107 | 95.1 | 72.4 | 65
 |  |  |  |  |  | COc1ccc(OC2CCCN(c3c(C#N)c(NCc4ccc(Cl)cc4)nc4ccccc34)C2)cc1 (stereo not drawn) [Compound 3232CN, 2-(4-chlorobenzylamino)-3-cyano-4-[3-(4-methoxyphenoxy)piperidin-1-yl]quinoline] | 91.1 | 99.8 | 79.9 | 73.5 | 93.9 | 82.9 | 104 | 99.4 | 98.7 | 90.3 | 79.9 | 72.3
0.5 to 5 | 0.5 to 5 | 0.5 to 5 | 0.5 to 5 | 0.5 to 5 | 5 to 10 | COC(=O)c1c(NCc2ccc(Cl)cc2)nc2ccccc2c1N1CCC(NC(C)(C)C)CC1 [Compound 354, methyl 4-(4-(tert-butylamino)piperidin-1-yl)-2-(4-chlorobenzylamino) quinoline-3-carboxylate] |  |  |  |  |  |  |  |  |  |  |  | 
0.5 to 5 | 0.5 to 5 | 0.5 to 5 | 0.5 to 5 | 0.5 to 5 | 0.5 to 5 | Cc1cc(C)nc(Nc2ccc(Nc3nc4ccccc4c(N4CCC(NC(C)(C)C)CC4)c3C#N)cc2)n1 [Compound 3276CN, 2-{4-[(4,6-dimethylpyrimidin-2-yl)amino]phenylamino}-3-cyano-4-[4-(tert-butylamino)piperidin-1-yl]quinoline] | 51.9 | 1 | 4.5 | 0.9 | 0.9 | 0.9 | 2.9 | 1 | 41.2 | 1 | 38.5 | 0.9
0.5 to 5 | 0.5 to 5 | 0.5 to 5 | 0.5 to 5 | 0.5 to 5 | 5 to 10 | CC(C)(C)NC1CCN(c2c(C#N)c(Nc3cccc(Nc4nccc(C(F)(F)F)n4)c3)nc3ccccc23)CC1 [Compound 540CN, 2-[3-(4-trifluoromethylpyrimidin-2-ylamino)phenylamino]-3-cyano-4-(4-tert-butylaminopiperidin-1-yl)quinoline] |  |  |  |  |  |  |  |  |  |  |  | 
 |  |  |  |  |  | Cc1ccc(OC2CCN(c3c(C#N)c(NCc4ccc(Cl)cc4)nc4ccccc34)C2)cc1 (stereo not drawn) [Compound 3332CN, 2-(4-chlorobenzylamino)-3-cyano-4-[3-(4-methylphenoxy)pyrrolidin-1-yl]quinoline] | 104 | 94.1 | 52 | 25 | 101 | 87.2 | 108 | 103 | 95.3 | 58.3 | 65.6 | 62.5
5 to 10 | 5 to 10 | 0.5 to 5 | 5 to 10 | 5 to 10 | 5 to 10 | Cc1ccnc(Nc2ccc(Nc3nc4ccccc4c(N4CCC(NC(C)(C)C)CC4)c3C#N)cc2C)n1 [Compound 500CN, 2-[4-(4-methyl-2-pyrimidinamino)-3-methyl-phenylamino]-3-cyano-4-(4-tert-butylaminopiperidin-1-yl)-quinoline] |  |  |  |  |  |  |  |  |  |  |  | 
